# Source: US20230093099A1, “COMPOUNDS AND METHODS OF TREATING CANCERS” (CULLGEN (SHANGHAI), INC., priority 2019, published 2023)
# System: RS4;11 cells
# Experiment: Cell viability assay (CellTiter-Glo) in RS4;11 cells
# Assay type: cell-based
# Settings: Homo sapiens, 72 h; RS4;11 cells; cell viability, 3 days, CellTiter-Glo; read-out: IC50
# Summary of the method: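 RS4;11 cells seeded at 5000 per well, exposed for 3 days to 8- or 12-point 3-fold serial dilutions. Viability read by CellTiter-Glo luminescence; IC50 fitted by nonlinear least-squares regression.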
row,SMILES,IC50 [µM]
1,"Cc1cnc(Nc2ccc(N3CCN(CC(=O)NCCCCNc4ccc5c(c4)C(=O)N(C4CCC(=O)NC4=O)C5=O)CC3)cc2)nc1Nc1cccc(S(=O)(=O)NC(C)(C)C)c1 (stereo not drawn) [JA-243, 2-(4-(4-((4-((3-(N-(tert-butyl)sulfamoyl)phenyl)amino)-5-methylpyrimidin-2-yl)amino)phenyl)piperazin-1-yl)-N-(4-((2-(2,6-dioxopiperidin-3-yl)-1,3-dioxoisoindolin-5-yl)amino)butyl)acetamide]",1.98
2,"Cc1cnc(Nc2ccc(N3CCN(C(=O)CCC(=O)N[C@H](C(=O)N4C[C@H](O)C[C@H]4C(=O)NCc4ccc(-c5scnc5C)cc4)C(C)(C)C)CC3)cc2)nc1Nc1cccc(S(=O)(=O)NC(C)(C)C)c1 [JA-022, (2S,4R)-1-((S)-2-(4-(4-(4-((4-((3-(N-(tert-Butyl)sulfamoyl)phenyl)amino)-5-methylpyrimidin-2-yl)amino)phenyl)piperazin-1-yl)-4-oxobutanamido)-3,3-dimethylbutanoyl)-4-hydroxy-N-(4-(4-methylthiazol-5-yl)benzyl)pyrrolidine-2-carboxamide]",> 10
3,"Cc1cnc(Nc2ccc(N3CCN(CC(=O)NCCCCCCCCNc4ccc5c(c4)C(=O)N(C4CCC(=O)NC4=O)C5=O)CC3)cc2)nc1Nc1cccc(S(=O)(=O)NC(C)(C)C)c1 (stereo not drawn) [JA-247, 2-(4-(4-((4-((3-(N-(tert-butyl)sulfamoyl)phenyl)amino)-5-methylpyrimidin-2-yl)amino)phenyl)piperazin-1-yl)-N-(8-((2-(2,6-dioxopiperidin-3-yl)-1,3-dioxoisoindolin-5-yl)amino)octyl)acetamide]",0.484
4,"Cc1cnc(Nc2ccc(N3CCN(CC(=O)NCCOCCC(=O)N[C@H](C(=O)N4C[C@H](O)C[C@H]4C(=O)NCc4ccc(-c5scnc5C)cc4)C(C)(C)C)CC3)cc2)nc1Nc1cccc(S(=O)(=O)NC(C)(C)C)c1 [JA-218, (2S,4R)-1-((S)-2-(3-(2-(2-(4-(4-((4-((3-(N-(tert-butyl)sulfamoyl)phenyl)amino)-5-methylpyrimidin-2-yl)amino)phenyl)piperazin-1-yl)acetamido)ethoxy)propanamido)-3,3-dimethylbutanoyl)-4-hydroxy-N-(4-(4-methylthiazol-5-yl)benzyl)pyrrolidine-2-carboxamide]",> 10
5,"Cc1ncsc1-c1ccc(CNC(=O)[C@@H]2C[C@@H](O)CN2C(=O)[C@@H](NC(=O)CCOCCOCCOCCOCCNC(=O)CN2CCN(c3ccc(Nc4nc5cccc(-c6ccc(S(C)(=O)=O)cc6)n5n4)cc3)CC2)C(C)(C)C)cc1 [JA-133, (2S,4R)-1-((S)-20-(tert-Butyl)-1-(4-(4-((5-(4-(methylsulfonyl)phenyl)-[1,2,4]triazolo[1,5-a]pyridin-2-yl)amino)phenyl)piperazin-1-yl)-2,18-dioxo-6,9,12,15-tetraoxa-3,19-diazahenicosan-21-oyl)-4-hydroxy-N-(4-(4-methylthiazol-5-yl)benzyl)pyrrolidine-2-carboxamide]",> 10

# The remaining lines, values ahead:
row,IC50 [µM],SMILES
1,> 10,"Cc1ncsc1-c1ccc(CNC(=O)[C@@H]2C[C@@H](O)CN2C(=O)[C@@H](NC(=O)CCCCCCCCC(=O)N2CCC(n3cc(-c4cnc5cccc(-c6cc(F)c(CN7CCOCC7)c(F)c6)c5n4)cn3)CC2)C(C)(C)C)cc1 [JA-042, (2S,4R)-1-[(2S)-2-[[10-[4-[4-[8-[3,5-Difluoro-4-(morpholinomethyl)phenyl]quinoxalin-2-yl]pyrazol-1-yl]-1-piperidyl]-10-oxo-decanoyl]amino]-3,3-dimethyl-butanoyl]-4-hydroxy-N-[[4-(4-methylthiazol-5-yl)phenyl]methyl]pyrrolidine-2-carboxamide]"
2,> 10,"Cc1cnc(Nc2ccc(N3CCN(C(=O)CCOCCOCCOCCOCCC(=O)N[C@H](C(=O)N4C[C@H](O)C[C@H]4C(=O)NCc4ccc(-c5scnc5C)cc4)C(C)(C)C)CC3)cc2)nc1Nc1cccc(S(=O)(=O)NC(C)(C)C)c1 [JA-035, (2S,4R)-1-((S)-2-(tert-Butyl)-19-(4-(4-((4-((3-(N-(tert-butyl)sulfamoyl)phenyl)amino)-5-methylpyrimidin-2-yl)amino)phenyl)piperazin-1-yl)-4,19-dioxo-7,10,13,16-tetraoxa-3-azanonadecanoyl)-4-hydroxy-N-(4-(4-methylthiazol-5-yl)benzyl)pyrrolidine-2-carboxamide]"
3,> 10,"Cc1cnc(Nc2ccc(N3CCN(CC(=O)NCCCCCCC(=O)N[C@H](C(=O)N4C[C@H](O)C[C@H]4C(=O)NCc4ccc(-c5scnc5C)cc4)C(C)(C)C)CC3)cc2)nc1Nc1cccc(S(=O)(=O)NC(C)(C)C)c1 [JA-102, (2S,4R)-1-((S)-2-(7-(2-(4-(4-((4-((3-(N-(tert-Butyl)sulfamoyl)phenyl)amino)-5-methylpyrimidin-2-yl)amino)phenyl)piperazin-1-yl)acetamido)heptanamido)-3,3-dimethylbutanoyl)-4-hydroxy-N-(4-(4-methylthiazol-5-yl)benzyl)pyrrolidine-2-carboxamide]"
4,> 10,"Cc1ncsc1-c1ccc(CNC(=O)[C@@H]2C[C@@H](O)CN2C(=O)[C@@H](NC(=O)CCOCCOCCOCCC(=O)N2CCC(n3cc(-c4cnc5cccc(-c6cc(F)c(CN7CCOCC7)c(F)c6)c5n4)cn3)CC2)C(C)(C)C)cc1 [JA-050, (2S,4R)-1-[(2S)-2-[3-[2-[2-[3-[4-[4-[8-[3,5-Difluoro-4-(morpholinomethyl)phenyl]quinoxalin-2-yl]pyrazol-1-yl]-1-piperidyl]-3-oxo-propoxy]ethoxy]ethoxy]propanoylamino]-3,3-dimethyl-butanoyl]-4-hydroxy-N-[[4-(4-methylthiazol-5-yl)phenyl]methyl]pyrrolidine-2-carboxamide]"
5,> 10,"Cc1ncsc1-c1ccc(CNC(=O)[C@@H]2C[C@@H](O)CN2C(=O)[C@@H](NC(=O)CCCCC(=O)N2CCC(n3cc(-c4cnc5cccc(-c6cc(F)c(CN7CCOCC7)c(F)c6)c5n4)cn3)CC2)C(C)(C)C)cc1 [JA-041, (2S,4R)-1-[(2S)-2-[[6-[4-[4-[8-[3,5-Difluoro-4-(morpholinomethyl)phenyl]quinoxalin-2-yl]pyrazol-1-yl]-1-piperidyl]-6-oxo-hexanoyl]amino]-3,3-dimethyl-butanoyl]-4-hydroxy-N-[[4-(4-methylthiazol-5-yl)phenyl]methyl]pyrrolidine-2-carboxamide]"
6,0.164,"O=C1CCC(N2C(=O)c3ccc(OCCCCCC(=O)N4CCC(n5cc(-c6cnc7cccc(-c8cc(F)c(CN9CCOCC9)c(F)c8)c7n6)cn5)CC4)cc3C2=O)C(=O)N1 (stereo not drawn) [JA-260, 5-((6-(4-(4-(8-(3,5-Difluoro-4-(morpholinomethyl)phenyl)quinoxalin-2-yl)-1H-pyrazol-1-yl)piperidin-1-yl)-6-oxohexyl)oxy)-2-(2,6-dioxopiperidin-3-yl)isoindoline-1,3-dione]"
7,0.633,"Cc1cnc(Nc2ccc(N3CCN(C(=O)CCOCCOCCOCCOCCNc4cccc5c4C(=O)N(C4CCC(=O)NC4=O)C5=O)CC3)cc2)nc1Nc1cccc(S(=O)(=O)NC(C)(C)C)c1 (stereo not drawn) [JA-020, N-(tert-Butyl)-3-((2-((4-(4-(1-((2-(2,6-dioxopiperidin-3-yl)-1,3-dioxoisoindolin-4-yl)amino)-3,6,9,12-tetraoxapentadecan-15-oyl)piperazin-1-yl)phenyl)amino)-5-methylpyrimidin-4-yl)amino)benzenesulfonamide]"
